Test results: ChEMBL document CHEMBL4321865, “Discovery of Novel Inhibitors of LpxC Displaying Potent in Vitro Activity against Gram-Negative Bacteria” (J Med Chem, 2020)
In brackets after ≈: the same amount, converted by molar mass.

Key:
[1] = physchem; details: n-octanol/phosphate buffered saline, pH 7.4
Description: n-Octanol/phosphate buffered saline partition coefficient, log D of the compound at pH 7.4 by LC-UV method

[2] = physchem; details: DMSO, pH 4
Description: Solubility of the compound in DMSO at pH 4 incubated for 24 hrs by LC-UV method

[3] = physchem; details: DMSO, pH 9
Description: Solubility of the compound in DMSO at pH 9 incubated for 24 hrs by LC-UV method

[4] = test system: T1, UDP-3-O-acyl-N-acetylglucosamine deacetylase (Pseudomonas aeruginosa (strain ATCC 15692 / PAO1 / 1C / PRS 101 / LMG12228)), P47205 [C40S]
T1 sequence (whole entry): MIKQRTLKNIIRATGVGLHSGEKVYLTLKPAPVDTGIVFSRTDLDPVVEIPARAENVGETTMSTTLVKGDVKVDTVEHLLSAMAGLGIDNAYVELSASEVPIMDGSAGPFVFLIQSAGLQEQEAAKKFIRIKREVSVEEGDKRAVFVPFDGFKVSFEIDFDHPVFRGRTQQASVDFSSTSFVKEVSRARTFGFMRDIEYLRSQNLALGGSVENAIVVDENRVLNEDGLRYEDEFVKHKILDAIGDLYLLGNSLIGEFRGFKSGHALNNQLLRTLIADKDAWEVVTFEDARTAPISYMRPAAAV

[5] = test system: T2, UDP-3-O-acyl-N-acetylglucosamine deacetylase (Escherichia coli K-12), P0A725 [C125S]
T2 sequence (whole entry): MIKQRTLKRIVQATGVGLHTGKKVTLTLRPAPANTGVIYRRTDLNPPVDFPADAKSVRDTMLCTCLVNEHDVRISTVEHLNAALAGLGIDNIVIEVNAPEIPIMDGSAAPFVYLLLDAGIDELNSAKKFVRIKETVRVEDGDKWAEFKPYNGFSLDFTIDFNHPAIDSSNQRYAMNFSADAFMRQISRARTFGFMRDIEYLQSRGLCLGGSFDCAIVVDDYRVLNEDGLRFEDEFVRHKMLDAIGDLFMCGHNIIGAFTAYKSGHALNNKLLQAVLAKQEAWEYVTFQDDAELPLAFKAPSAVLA

[6] = test system: Klebsiella pneumoniae; test: microbe, parasite or virus in culture; details: T 6474
Description: Antibacterial activity against multi-drug resistant Klebsiella pneumoniae T 6474 by broth microdilution method

[7] = physchem; details: DMSO, pH 7
Description: Solubility of the compound in DMSO at pH 7 incubated for 24 hrs by LC-UV method

[8] = test system: Pseudomonas aeruginosa; test: microbe, parasite or virus in culture; details: PAO1
Description: Antimicrobial activity against wild-type Pseudomonas aeruginosa PAO1 by broth microdilution method

[9] = test system: Escherichia coli; test: microbe, parasite or virus in culture; details: ATCC 25922
Description: Antibacterial activity against wild-type Escherichia coli ATCC 25922 by broth microdilution method

[10] = test system: Pseudomonas aeruginosa; test: microbe, parasite or virus in culture; details: ATCC 27853
Description: Antimicrobial activity against Pseudomonas aeruginosa ATCC 27853 by broth microdilution method

Structure (SMILES)	logD [1]	solubility at 24 h [2] [µg/mL]	solubility at 24 h [3] [µg/mL]	ΔTm [4] [°C]	ΔTm [5] [°C]	MIC [6] [µg/mL]	solubility at 24 h [7] [µg/mL]	MIC [8] [µg/mL]	MIC [9] [µg/mL]	MIC [10] [µg/mL]
C[C@@](CCN1Cc2cc(C#Cc3ccc(C4(CO)CC4)cc3)cn2C1=O)(C(=O)NO)S(C)(=O)=O	2	5 (≈ 10.3 µM)	56 (≈ 115 µM)	13.6	11.8	0.25 (≈ 0.515 µM)	7 (≈ 14.4 µM)	0.5 (≈ 1.03 µM)	0.12 (≈ 0.247 µM)	0.5 (≈ 1.03 µM)
C[C@@](CCN1Cc2cc(C#Cc3ccc(CN4CCOCC4)cc3)cn2C1=O)(C(=O)NO)S(C)(=O)=O	1.6	802 (≈ 1560 µM)	621 (≈ 1210 µM)	13.6 to 13.9	11.9	0.25 (≈ 0.486 µM)	68 (≈ 132 µM)	1 (≈ 1.94 µM)		1 (≈ 1.94 µM)
C[C@@](CCN1Cc2cc(C#CC#C[C@H]3C[C@@H]3CO)sc2C1=O)(C(=O)NO)S(C)(=O)=O	1.3	522 (≈ 1160 µM)	> 760	15	12.2	0.25 (≈ 0.555 µM)	603 (≈ 1340 µM)	0.5 (≈ 1.11 µM)	0.15 (≈ 0.333 µM)	0.5 (≈ 1.11 µM)
CC(C)(O)c1ccc(C#Cc2cc3n(c2)C(=O)N(CC[C@](C)(C(=O)NO)S(C)(=O)=O)C3)cc1	1.9	70 (≈ 148 µM)	556 (≈ 1170 µM)	13.7	11.8	0.25 (≈ 0.528 µM)	110 (≈ 232 µM)	1 (≈ 2.11 µM)	0.12 (≈ 0.253 µM)	0.5 (≈ 1.06 µM)
CC(C)(O)c1ccc(C#Cc2cc3c(s2)C(=O)N(CC[C@](C)(C(=O)NO)S(C)(=O)=O)C3)cc1	2.1	69 (≈ 141 µM)	613 (≈ 1250 µM)	15.5	13	0.25 (≈ 0.51 µM)	83 (≈ 169 µM)	1 (≈ 2.04 µM)	0.12 (≈ 0.245 µM)	0.5 (≈ 1.02 µM)
C[C@@](CCN1Cc2cc(C#Cc3ccc(CNS(C)(=O)=O)cc3)cn2C1=O)(C(=O)NO)S(C)(=O)=O	1	1 (≈ 1.91 µM)	56 (≈ 107 µM)	13.2	11.2	0.5 (≈ 0.957 µM)	3 (≈ 5.74 µM)	1 (≈ 1.91 µM)	0.25 (≈ 0.478 µM)	1 (≈ 1.91 µM)
C[C@@](CCN1Cc2cc(C#CC#C[C@@H]3C[C@H]3CO)cn2C1=O)(C(=O)NO)S(C)(=O)=O		600 (≈ 1380 µM)		13.6	10.8	0.25 (≈ 0.577 µM)		0.5 (≈ 1.15 µM)	0.12 (≈ 0.277 µM)	0.5 (≈ 1.15 µM)
C[C@@](CCN1Cc2cc(C#Cc3ccc([C@H](O)CO)cc3)sc2C1=O)(C(=O)NO)S(C)(=O)=O	0.8	230 (≈ 467 µM)	814 (≈ 1650 µM)	14.3	12.1	1 (≈ 2.03 µM)	300 (≈ 609 µM)	2 (≈ 4.06 µM)	0.5 (≈ 1.02 µM)	1 (≈ 2.03 µM)
CC(C)(O)c1ccc(C#Cc2ccc3c(c2)CN(CC[C@](C)(C(=O)NO)S(C)(=O)=O)C3=O)cc1	2.3	4 (≈ 8.25 µM)	136 (≈ 281 µM)	12.8	9.5	0.5 (≈ 1.03 µM)	7 (≈ 14.4 µM)	8 (≈ 16.5 µM)	0.25 (≈ 0.516 µM)	4 (≈ 8.25 µM)
C[C@@](CCN1Cc2cc(C#Cc3ccc(C4(O)COC4)cc3)sc2C1=O)(C(=O)NO)S(C)(=O)=O	1.5	114 (≈ 226 µM)	> 850	14.3	11.4	0.5 (≈ 0.991 µM)	> 850	2 (≈ 3.96 µM)	0.12 (≈ 0.238 µM)	0.5 (≈ 0.991 µM)
C[C@@](CCN1Cc2cc(C#CC#C[C@H](O)CO)cn2C1=O)(C(=O)NO)S(C)(=O)=O				10.3	7.3	8 (≈ 18.9 µM)		8 (≈ 18.9 µM)	8 (≈ 18.9 µM)	4 (≈ 9.45 µM)
C[C@@](CCN1Cc2cc(C#CC#CC3(O)COC3)ccc2C1=O)(C(=O)NO)S(C)(=O)=O				11.6	7	8 (≈ 17.9 µM)		4 (≈ 8.96 µM)	16 (≈ 35.8 µM)	8 (≈ 17.9 µM)
C[C@@](CCN1Cc2cc(C#Cc3ccc([C@@H]4C[C@H]4CO)cc3)cn2C1=O)(C(=O)NO)S(C)(=O)=O	2	73 (≈ 150 µM)	568 (≈ 1170 µM)	13.4	12.1	≤ 0.06	112 (≈ 231 µM)	1 (≈ 2.06 µM)	≤ 0.06	0.5 (≈ 1.03 µM)
C[C@@](CCN1Cc2cc(C#CC#CC3(CO)CC3)sc2C1=O)(C(=O)NO)S(C)(=O)=O	1.2	443 (≈ 983 µM)	> 760	14.2	10.9	1 (≈ 2.22 µM)	> 760	1 (≈ 2.22 µM)	1 (≈ 2.22 µM)	1 (≈ 2.22 µM)
CC(C)(O)C#CC#Cc1ccc2c(c1)CN(CC[C@](C)(C(=O)NO)S(C)(=O)=O)C2=O	1.2	71 (≈ 164 µM)	564 (≈ 1300 µM)	12.6	8.5	2 (≈ 4.62 µM)	97 (≈ 224 µM)	2 (≈ 4.62 µM)	1 (≈ 2.31 µM)	2 (≈ 4.62 µM)
CC(C)(O)C#CC#Cc1cc2n(c1)C(=O)N(CC[C@](C)(C(=O)NO)S(C)(=O)=O)C2	0.9	398 (≈ 944 µM)	> 710	12.3	9.9	1 (≈ 2.37 µM)	> 710	2 (≈ 4.75 µM)	0.5 (≈ 1.19 µM)	1 (≈ 2.37 µM)
C[C@@](CCN1Cc2cc(C#CC#C[C@@H]3C[C@H]3CO)sc2C1=O)(C(=O)NO)S(C)(=O)=O	1.3	464 (≈ 1030 µM)	380 (≈ 843 µM)	15	11.2	0.25 (≈ 0.555 µM)	377 (≈ 837 µM)	0.5 (≈ 1.11 µM)	0.12 (≈ 0.266 µM)	0.5 (≈ 1.11 µM)
C[C@@](CCN1Cc2cc(C#Cc3ccc(C4(O)COC4)cc3)cn2C1=O)(C(=O)NO)S(C)(=O)=O	1.2	195 (≈ 400 µM)	> 820	13	10.8	0.5 (≈ 1.03 µM)	> 820	1 (≈ 2.05 µM)	0.12 (≈ 0.246 µM)	0.5 (≈ 1.03 µM)
C[C@@](CCN1Cc2cc(C#Cc3ccc(COC(=O)N4CCC(O)CC4)cc3)cn2C1=O)(C(=O)NO)S(C)(=O)=O	1.7	< 1	251 (≈ 438 µM)	14.2	11.8	0.5 (≈ 0.873 µM)	15 (≈ 26.2 µM)	2 (≈ 3.49 µM)	0.25 (≈ 0.437 µM)	2 (≈ 3.49 µM)
C[C@@](CCN1Cc2cc(C#CC#CCOC(=O)N3CCC(O)CC3)cn2C1=O)(C(=O)NO)S(C)(=O)=O	0.9	641 (≈ 1230 µM)	> 880	12.9	9.4	1 (≈ 1.92 µM)	785 (≈ 1510 µM)	2 (≈ 3.84 µM)	0.5 (≈ 0.96 µM)	2 (≈ 3.84 µM)
C[C@@](CCN1Cc2cc(C#CC#CC3(O)COC3)cn2C1=O)(C(=O)NO)S(C)(=O)=O	0.3	> 740	> 740	11.3	8.8	2 (≈ 4.59 µM)	> 740	4 (≈ 9.19 µM)	1 (≈ 2.3 µM)	2 (≈ 4.59 µM)
C[C@@](CCN1Cc2cc(C#CC#CC3(O)COC3)sc2C1=O)(C(=O)NO)S(C)(=O)=O	0.5	> 760	> 760	12.2	7.4	4 (≈ 8.84 µM)	> 760	4 (≈ 8.84 µM)	2 (≈ 4.42 µM)	4 (≈ 8.84 µM)
CC(C)(O)C#CC#Cc1cc2c(s1)C(=O)N(CC[C@](C)(C(=O)NO)S(C)(=O)=O)C2	1.2	> 740	> 740	13.6	9.9	2 (≈ 4.56 µM)	> 740	2 (≈ 4.56 µM)	0.5 (≈ 1.14 µM)	1 (≈ 2.28 µM)
C[C@@](CCN1Cc2cc(C#CC#CC3(N)CC3)sc2C1=O)(C(=O)NO)S(C)(=O)=O.Cl	1	> 740	> 740	12.5	10	0.5	207	1	0.25	1
C[C@@](CCN1Cc2cc(C#CC#CCNS(C)(=O)=O)cn2C1=O)(C(=O)NO)S(C)(=O)=O				10.8	8	4 (≈ 8.5 µM)		1 (≈ 2.13 µM)	2 (≈ 4.25 µM)	4 (≈ 8.5 µM)
